Laboratory results reported in patent publication US9101638B2, “Boronic acid derivatives and therapeutic uses thereof” (Rempex Pharmaceuticals, Inc., priority 2013, dated 2015).
Where two headings read alike, the source gives them in different places.

Key:
PAM1032/KPC-2 = assay: Biapenem potentiation in PAM1032/KPC-2 (MexAB-OprM overexpressed); type: cell-based, Pseudomonas aeruginosa; conditions: BLI potency to decrease biapenem MIC 64-fold, 32 to 0.5 μg/ml; efflux proficient strain
Protocol: (§1) Efflux of BLIs from Pseudomonas aeruginosa by the MexAB-OprM efflux pump was also evaluated. […] Due to expression of KPC-2 both strains became resistant to biapenem. […] Potency of BLIs to potentiate biapenem in these strains was determined. […] The ratio of MPC64 values for each BLI in PAM1032/KPC-2 (efflux proficient) and PAM1154/KPC-2 (efflux deficient) was determined to generate the Efflux Index (EI).

KPC-2 = KPC-2 (Klebsiella pneumoniae, UniProt Q9F663); assay: Inhibition of nitrocefin cleavage by purified KPC-2; type: biochemical; conditions: nitrocefin reporter substrate, purified enzyme; read-out: Ki (KPC-2, NCF)
Protocol: (§2) Purified enzymes were mixed with various concentrations of inhibitors in reaction buffer and incubated for 10 min at room temperature. Nitrocefin was added and substrate cleavage profiles were recorded at 490 nm every 10 sec for 10 min.

EC1010 (CMY-6) [1] = type: cell-based
SHV-12 = SHV-12 (Klebsiella pneumoniae, UniProt P0AD64, E235K/G234S/L31Q); assay: Inhibition of nitrocefin cleavage by purified SHV-12; type: biochemical; conditions: nitrocefin reporter substrate, purified enzyme; read-out: Ki (SHV-12, NCF)
Protocol: as §2

ec308 (SHV-5) [2] = assay: Potentiation of tigemonam, strain ec308; type: cell-based; conditions: minimum BLI concentration inhibiting growth with 4 μg/mL tigemonam
KP1005 (CTX-M-14) = assay: Potentiation of aztreonam, strain KP1005; type: cell-based
ECL1002 = assay: Potentiation of aztreonam, strain ECL1002; type: cell-based; conditions: minimum BLI concentration inhibiting growth with 4 μg/mL aztreonam
ec302 (TEM-10) [3] = assay: Potentiation of tigemonam, strain ec302; type: cell-based
KP1004 (K-2) = assay: Potentiation of aztreonam, strain KP1004; type: cell-based; conditions: minimum BLI concentration inhibiting growth with 4 μg/mL aztreonam
KP1009 (CTX-M-15) [4] = assay: Potentiation of aztreonam, strain KP1009; type: cell-based
ec302 (TEM-10) [5] = assay: Potentiation of aztreonam, strain ec302; type: cell-based
KP1009 (CTX-M-15) [6] = assay: Potentiation of tigemonam, strain KP1009; conditions: minimum BLI concentration inhibiting growth with 4 μg/mL tigemonam
ec308 (SHV-5) [7] = assay: Potentiation of aztreonam, strain ec308; type: cell-based; conditions: minimum BLI concentration inhibiting growth with 4 μg/mL aztreonam
PAM1154/KPC-2 = assay: Biapenem potentiation in PAM1154/KPC-2 (MexAB-OprM lacking); type: cell-based, Pseudomonas aeruginosa
Protocol: as §1

EC1010 (CMY-6) [8] = assay: Potentiation of aztreonam, strain EC1010; type: cell-based
[9] = minimum BLI concentration inhibiting growth with 4 μg/mL tigemonam
[10] = minimum BLI concentration inhibiting growth with 4 μg/mL aztreonam

Chain of SHV-12 (P0AD64 22-286 L31Q/G234S/E235K): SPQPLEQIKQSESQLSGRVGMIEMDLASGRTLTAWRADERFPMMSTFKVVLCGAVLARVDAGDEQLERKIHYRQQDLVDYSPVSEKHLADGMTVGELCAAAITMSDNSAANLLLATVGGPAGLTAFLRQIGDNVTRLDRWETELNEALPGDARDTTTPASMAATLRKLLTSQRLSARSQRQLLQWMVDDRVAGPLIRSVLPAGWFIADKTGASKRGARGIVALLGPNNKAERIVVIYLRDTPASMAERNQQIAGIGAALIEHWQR
Chain of KPC-2 (Q9F663 25-293, looked up, species assumed): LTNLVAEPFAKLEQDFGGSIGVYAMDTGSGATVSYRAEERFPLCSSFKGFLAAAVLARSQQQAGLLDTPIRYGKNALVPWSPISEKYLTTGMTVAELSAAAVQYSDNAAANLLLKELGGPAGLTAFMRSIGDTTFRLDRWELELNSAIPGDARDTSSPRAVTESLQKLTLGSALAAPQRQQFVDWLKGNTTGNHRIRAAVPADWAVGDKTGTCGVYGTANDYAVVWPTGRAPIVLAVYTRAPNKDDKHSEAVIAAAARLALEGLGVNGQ

Structure (SMILES)	PAM1032/KPC-2 Biapenem MPC64 (PAM1032/KPC-2)	Ki (KPC-2)	TIG MPC4 CMY-6 EC1010 (EC1010 (CMY-6) [1])	Ki (SHV-12)	TIG MPC4 SHV-5 ec308 (ec308 (SHV-5) [2])	AZT MPC4 CTX-M-14 KP1005 (KP1005 (CTX-M-14))	AZT MPC4 ECL1002 (ECL1002)	TIG MPC4 TEM-10 ec302 (ec302 (TEM-10) [3])	AZT MPC4 K-2 KP1004 (KP1004 (K-2))	AZT MPC4 CTX-M-15 KP1009 (KP1009 (CTX-M-15) [4])	AZT MPC4 TEM-10 ec302 (ec302 (TEM-10) [5])	TIG MPC4 CTX-M-15 KP1009 (KP1009 (CTX-M-15) [6])	AZT MPC4 SHV-5 ec308 (ec308 (SHV-5) [7])	PAM1154/KPC-2 Biapenem MPC64 (PAM1154/KPC-2)	AZT MPC4 CMY-6 EC1010 (EC1010 (CMY-6) [8])	further results
O=C(N[C@H]1Cc2cccc(C(=O)O)c2OB1O)c1cncnc1 [Compound 18, (R)-2-hydroxy-3-(pyrimidine-5-carboxamido)-3,4-dihydro-2H-benzo[e][1,2]oxaborinine-8-carboxylic acid]	Z (Z Greater than 40)	> 10 nM	X (key: X = MIC of less than 1 μg/mL; Y = MIC of 1 μg/mL to 10 μg/mL; Z = MIC of greater than 10 μg/mL)	< 1 nM	Y (Y = MIC of 1 μg/mL to 10 μg/mL)	Y (key: X = MIC of less than 1 μg/mL; Y = MIC of 1 μg/mL to 10 μg/mL; Z = MIC of greater than 10 μg/mL)	Y (Y = MIC of 1 μg/mL to 10 μg/mL)	Y (key: X = MIC of less than 1 μg/mL; Y = MIC of 1 μg/mL to 10 μg/mL; Z = MIC of greater than 10 μg/mL)	Y (Y = MIC of 1 μg/mL to 10 μg/mL)	Y (key: X = MIC of less than 1 μg/mL; Y = MIC of 1 μg/mL to 10 μg/mL; Z = MIC of greater than 10 μg/mL)	X (key: X = MIC of less than 1 μg/mL; Y = MIC of 1 μg/mL to 10 μg/mL; Z = MIC of greater than 10 μg/mL)	Y (Y = MIC of 1 μg/mL to 10 μg/mL)	Y (Y = MIC of 1 μg/mL to 10 μg/mL)	X (key: X = Less than 10; Y = 10 to 40; Z Greater than 40)	Y (key: X = MIC of less than 1 μg/mL; Y = MIC of 1 μg/mL to 10 μg/mL; Z = MIC of greater than 10 μg/mL)	
O=C(CSC(F)(F)F)N[C@H]1Cc2cccc(C(=O)O)c2OB1O [Compound 1, (R)-2-hydroxy-3-(2-(trifluoromethylthio)acetamido)-3,4-dihydro-2H-benzo[e][1,2]oxaborinine-8-carboxylic acid]	Z (Z Greater than 40)			< 1 nM	X (X = MIC of less than 1 μg/mL)		Y (Y = MIC of 1 μg/mL to 10 μg/mL)	Z (key: X = MIC of less than 1 μg/mL; Y = MIC of 1 μg/mL to 10 μg/mL; Z = MIC of greater than 10 μg/mL)	Y (Y = MIC of 1 μg/mL to 10 μg/mL)			Y (Y = MIC of 1 μg/mL to 10 μg/mL)	X (X = MIC of less than 1 μg/mL)	X (key: X = Less than 10; Y = 10 to 40; Z Greater than 40)		TIG MPC4 CMY-6 EC1010 (EC1010 (CMY-6) [1]; [9]): X (X = MIC of less than 1 μg/mL); AZT MPC4 CTX-M-14 KP1005 (KP1005 (CTX-M-14); [10]): Y (Y = MIC of 1 μg/mL to 10 μg/mL); AZT MPC4 CTX-M-15 KP1009 (KP1009 (CTX-M-15) [4]; [10]): Y (Y = MIC of 1 μg/mL to 10 μg/mL); AZT MPC4 TEM-10 ec302 (ec302 (TEM-10) [5]; [10]): Y (Y = MIC of 1 μg/mL to 10 μg/mL); AZT MPC4 CMY-6 EC1010 (EC1010 (CMY-6) [8]; [10]): Y (Y = MIC of 1 μg/mL to 10 μg/mL)
CN(C)C(=O)CC(=O)N[C@H]1Cc2cccc(C(=O)O)c2OB1O [Compound 10, (R)-3-(3-(dimethylamino)-3-oxopropanamido)-2-hydroxy-3,4-dihydro-2H-benzo[e][1,2]oxaborinine-8-carboxylic acid]	Z (Z Greater than 40)	> 10 nM	X (key: X = MIC of less than 1 μg/mL; Y = MIC of 1 μg/mL to 10 μg/mL; Z = MIC of greater than 10 μg/mL)	< 1 nM	Y (Y = MIC of 1 μg/mL to 10 μg/mL)	Y (key: X = MIC of less than 1 μg/mL; Y = MIC of 1 μg/mL to 10 μg/mL; Z = MIC of greater than 10 μg/mL)	Y (Y = MIC of 1 μg/mL to 10 μg/mL)		X (X = MIC of less than 1 μg/mL)	X (key: X = MIC of less than 1 μg/mL; Y = MIC of 1 μg/mL to 10 μg/mL; Z = MIC of greater than 10 μg/mL)	Y (key: X = MIC of less than 1 μg/mL; Y = MIC of 1 μg/mL to 10 μg/mL; Z = MIC of greater than 10 μg/mL)	X (X = MIC of less than 1 μg/mL)	Y (Y = MIC of 1 μg/mL to 10 μg/mL)		X (key: X = MIC of less than 1 μg/mL; Y = MIC of 1 μg/mL to 10 μg/mL; Z = MIC of greater than 10 μg/mL)	TIG MPC4 TEM-10 ec302 (ec302 (TEM-10) [3]; [9]): Z (Z = MIC of greater than 10 μg/mL); PAM11154/KPC-2 Biapenem MPC64 (PAM1154/KPC-2; BLI potency to decrease biapenem MIC 64-fold, 32 to 0.5 μg/ml, efflux deficient strain): Y (Y = 10 to 40)
Nc1nnc(C(=O)N[C@H]2Cc3cccc(C(=O)O)c3OB2O)s1 [Compound 19, (R)-3-(5-amino-1,3,4-thiadiazole-2-carboxamido)-2-hydroxy-3,4-dihydro-2H-benzo[e][1,2]oxaborinine-8-carboxylic acid]		> 10 nM	X (key: X = MIC of less than 1 μg/mL; Y = MIC of 1 μg/mL to 10 μg/mL; Z = MIC of greater than 10 μg/mL)	< 1 nM	X (X = MIC of less than 1 μg/mL)	Y (key: X = MIC of less than 1 μg/mL; Y = MIC of 1 μg/mL to 10 μg/mL; Z = MIC of greater than 10 μg/mL)	Y (Y = MIC of 1 μg/mL to 10 μg/mL)		Y (Y = MIC of 1 μg/mL to 10 μg/mL)	Y (key: X = MIC of less than 1 μg/mL; Y = MIC of 1 μg/mL to 10 μg/mL; Z = MIC of greater than 10 μg/mL)	Y (key: X = MIC of less than 1 μg/mL; Y = MIC of 1 μg/mL to 10 μg/mL; Z = MIC of greater than 10 μg/mL)	Y (Y = MIC of 1 μg/mL to 10 μg/mL)	X (X = MIC of less than 1 μg/mL)			
